Measured values reported in ChEMBL document CHEMBL5360564, “Small molecule LpxC inhibitors against gram-negative bacteria: Advances and future perspectives” (Eur J Med Chem, 2023).
pIC50, pKi: −log10 of the molar value. Values after ≈ are worked out from the molar mass of the structure shown. Blank lines part the entries; values can stand above or below the compound they belong to.

Assays:
Pseudomonas aeruginosa [1] = assay: Antibacterial activity against Pseudomonas aeruginosa PA14 assessed as bacterial growth inhibition measured after 18 hrs by broth microdilution assay; format: functional
Pseudomonas aeruginosa [2] = assay: Antibacterial activity against Pseudomonas aeruginosa PAO1 assessed as bacterial growth inhibition measured after 18 hrs by broth microdilution assay; format: functional
Escherichia coli [3] = assay: Antibacterial activity against Escherichia coli DH5alpha assessed as bacterial growth inhibition measured after 18 hrs by broth microdilution assay; format: functional
Pseudomonas aeruginosa [4] = assay: Antibacterial activity against Pseudomonas aeruginosa clinical isolate assessed as bacterial growth inhibition by microdilution assay; format: functional
[5] = biological target: T1, UDP-3-O-acyl-N-acetylglucosamine deacetylase (Pseudomonas aeruginosa, UniProt B5ATN6); assay: Inhibition of recombinant Pseudomonas aeruginosa LpxC expressed in Escherichia coli
T1 sequence (B5ATN6 whole entry): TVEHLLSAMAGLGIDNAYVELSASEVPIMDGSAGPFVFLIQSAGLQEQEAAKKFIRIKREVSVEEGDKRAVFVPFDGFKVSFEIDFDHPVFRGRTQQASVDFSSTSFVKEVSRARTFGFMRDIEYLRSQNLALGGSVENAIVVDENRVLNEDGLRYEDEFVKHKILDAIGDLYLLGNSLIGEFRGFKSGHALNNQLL

[6] = biological target: T2, UDP-3-O-acyl-N-acetylglucosamine deacetylase (Aquifex aeolicus (strain VF5), UniProt O67648); assay: Inhibition of Aquifex aeolicus LpxC transformed in Escherichia coli BL21(DE3) pLysS cells
T2 sequence (O67648 whole entry): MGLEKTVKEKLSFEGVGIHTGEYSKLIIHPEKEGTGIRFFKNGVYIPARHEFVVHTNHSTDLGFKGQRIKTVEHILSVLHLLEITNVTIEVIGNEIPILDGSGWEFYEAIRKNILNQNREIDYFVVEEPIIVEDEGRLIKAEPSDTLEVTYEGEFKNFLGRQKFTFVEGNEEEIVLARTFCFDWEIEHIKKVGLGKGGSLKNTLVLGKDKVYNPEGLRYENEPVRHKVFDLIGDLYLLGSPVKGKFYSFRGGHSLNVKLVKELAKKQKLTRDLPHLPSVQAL

Pseudomonas aeruginosa [7] = assay: Antibacterial activity against Pseudomonas aeruginosa CMCC 10104 assessed as bacterial growth inhibition measured after 22 hrs; format: functional
Escherichia coli [8] = assay: Antibacterial activity against Escherichia coli CMCC 25922 assessed as bacterial growth inhibition measured after 22 hrs; format: functional
Pseudomonas aeruginosa [9] = assay: Antibacterial activity against Pseudomonas aeruginosa CMCC 27853 assessed as bacterial growth inhibition measured after 22 hrs; format: functional
Escherichia coli [10] = assay: Antibacterial activity against Escherichia coli CMCC 44568 assessed as bacterial growth inhibition measured after 22 hrs; format: functional
Pseudomonas aeruginosa [11] = assay: Antibacterial activity against Pseudomonas aeruginosa HER 1018 assessed as bacterial growth inhibition by twofold dilution method; format: functional
[12] = biological target: T3, UDP-3-O-acyl-N-acetylglucosamine deacetylase (Escherichia coli K-12, UniProt P0A725); assay: Inhibition of Escherichia coli LpxC
T3 sequence (P0A725 whole entry): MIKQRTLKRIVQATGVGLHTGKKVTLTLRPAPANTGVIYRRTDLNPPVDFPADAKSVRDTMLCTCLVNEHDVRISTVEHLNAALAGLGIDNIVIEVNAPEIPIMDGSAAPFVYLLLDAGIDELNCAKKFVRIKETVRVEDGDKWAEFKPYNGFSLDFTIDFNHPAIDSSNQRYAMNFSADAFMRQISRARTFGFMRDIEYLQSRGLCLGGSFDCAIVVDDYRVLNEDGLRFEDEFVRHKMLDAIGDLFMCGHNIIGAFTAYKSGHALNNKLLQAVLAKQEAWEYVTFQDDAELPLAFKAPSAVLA

Escherichia coli [13] = assay: Antibacterial activity against Escherichia coli D21 assessed as bacterial growth inhibition measured after 20 hrs by checkerboard method; format: functional
Klebsiella pneumoniae = assay: Antibacterial activity against Klebsiella pneumoniae assessed as bacterial growth inhibition two-fold microdilution; format: functional
Escherichia coli [14] = assay: Antibacterial activity against Escherichia coli assessed as bacterial growth inhibition two-fold microdilution; format: functional
Escherichia coli [15] = assay: Antibacterial activity against Escherichia coli MB5500 assessed as bacterial growth inhibition; format: functional
Escherichia coli [16] = assay: Antibacterial activity against Escherichia coli MB4926 assessed as bacterial growth inhibition; format: functional
Escherichia coli [17] = assay: Antibacterial activity against wild type Escherichia coli W3110 assessed as bacterial growth inhibition measured after 22 hrs by MTT assay; format: functional
[18] = biological target: T3, UDP-3-O-acyl-N-acetylglucosamine deacetylase; assay: Inhibition of Escherichia coli LpxC assessed as inhibition constant measured after 30 mins by fluorescence based microplate assay

MIC (Pseudomonas aeruginosa [1]): 10 µg/mL (≈ 31 µM)
MIC (Pseudomonas aeruginosa [2]): 1.25 µg/mL (≈ 3.88 µM)
MIC (Escherichia coli [3]): 1.25 µM (≈ 0.403 µg/mL)
SMILES: O=C(C[C@@H]1CN(c2ccc(C#Cc3ccccc3)cc2)CO1)NO

MIC (Pseudomonas aeruginosa [4]): 3.5 µg/mL
pIC50 [5]: 7.72
SMILES: CC(C)(N)[C@H](NC(=O)c1ccc(C#CC#C[C@H](O)CO)cc1)C(=O)NO

pIC50 [6]: 6.72
SMILES: CCCCCC(=O)O[C@@H]1[C@@H](CP(C)(=O)O)CO[C@H](CO)[C@H]1O

MIC (Pseudomonas aeruginosa [7]): 4 µg/mL (≈ 12.5 µM)
MIC (Escherichia coli [8]): 8 µg/mL (≈ 24.9 µM)
MIC (Pseudomonas aeruginosa [9]): > 128 µg/mL
MIC (Escherichia coli [10]): 64 µg/mL (≈ 200 µM)
SMILES: N=C(N)N/N=C/c1ccc(C#CC#Cc2ccccc2Cl)cc1

MIC (Pseudomonas aeruginosa [11]): 12.5 µg/mL (≈ 35.6 µM)
SMILES: CS(=O)(=O)[C@](F)(CCc1ccc(-c2ccccc2)cc1)C(=O)NO

pIC50 [12]: 4.57
SMILES: O=c1ccn([C@@H]2O[C@H](CO/N=C/c3ccc(O)c(O)c3O)[C@@H](O)[C@H]2O)c(=O)[nH]1

MIC (Escherichia coli [13]): 2 µg/mL
SMILES: O=C(NO)[C@@H](Cc1ccc2ccccc2c1)NS(=O)(=O)c1ccc2ccccc2c1

MIC (Klebsiella pneumoniae): 2 µg/mL (≈ 4.34 µM)
pIC50 [12]: 7.00
MIC (Escherichia coli [14]): 2 µg/mL (≈ 4.34 µM)
SMILES: C[C@H](O)c1nccn1Cc1cc(-c2ccc(C#C[C@@H]3[C@H]4CN(CCCC(=O)O)C[C@@H]34)cc2)on1

MIC (Escherichia coli [15]): 1 µg/mL (≈ 3.24 µM)
MIC (Escherichia coli [16]): 1 µg/mL (≈ 3.24 µM)
SMILES: CCCc1cc(C2=N[C@@H](C(=O)NO)CO2)cc(OC)c1OC

MIC (Pseudomonas aeruginosa [4]): 0.16 µg/mL
pIC50 [5]: 9.21
SMILES: CC(C)(N)[C@H](NC(=O)c1ccc(C#CC#CC2CC2)cc1)C(=O)NO

MIC (Escherichia coli [17]): 0.05 µg/mL (≈ 0.138 µM)
SMILES: C[C@@H](O)[C@H](NC(=O)c1ccc(C#CC#Cc2ccccc2)cc1)C(=O)NO

MIC (Pseudomonas aeruginosa [4]): 2.3 µg/mL
SMILES: COC1([C@H](NC(=O)c2ccc(C#CC#CCCO)cc2)C(=O)NO)CS(=O)(=O)C1

pKi [18]: 6.45
SMILES: O=C(NO)C1(COc2ccc(C#Cc3ccc(CN4CCOCC4)cc3)cc2)CCOCC1

SMILES: O=C(CO/N=C/c1ccc(O)c(O)c1O)NC[C@H]1O[C@@H](n2ccc(=O)[nH]c2=O)[C@H](O)[C@@H]1O
pIC50 [12]: 3.92

MIC (Pseudomonas aeruginosa [4]): 8.8 µg/mL
pIC50 [5]: 7.92
SMILES: CC(C)(N)[C@H](NC(=O)c1ccc(C#CC#C[C@@H](O)CO)cc1)C(=O)NO

MIC (Pseudomonas aeruginosa [7]): 1 µg/mL (≈ 3.37 µM)
MIC (Escherichia coli [8]): 2 µg/mL (≈ 6.74 µM)
MIC (Pseudomonas aeruginosa [9]): > 128 µg/mL
MIC (Escherichia coli [10]): 2 µg/mL (≈ 6.74 µM)
SMILES: N=C(N)N/N=C/c1ccc(C#Cc2ccc(Cl)cc2)cc1

MIC (Escherichia coli [17]): 0.24 µg/mL (≈ 0.613 µM)
SMILES: C[C@@H](O)[C@](C)(NC(=O)c1ccc(C#CC#Cc2ccc(N)cc2)cc1)C(=O)NO
